Measured values from paper PMC10076467 (EJNMMI Research, 2023).
Several values for one entry are separate records, joined by “and”; a condition that tells them apart may be missing. Equal entries are not always repeated. Where two headings read alike, the source gives them in different places.

Key:
GluN2B receptors [1] = molecular target: T1, GluN2B receptors (Rattus norvegicus, UniProt P35439+Q00960); parameters: method as in PMID 31924728; conditions: pre-blocking, radioligand ^11C-(S)-NR2B-SMe; cited from earlier work
T1 construct: from tissue; host or cells: brain of living male rats (PET imaging)

σ2 receptor = conditions: at 10 µmol; cited from earlier work
[2] = cited from earlier work
[3] = cited from earlier work; remark: listed apart in the source
σ1 receptors = molecular target: T2, σ1 receptors (Rattus norvegicus, UniProt Q9R0C9); assay: ED50 for pre-blocking of ^18F-FTC146 uptake in rat whole brain (PET); type: in vivo; conditions: radioligand ^18F-FTC146, AUC 20-120 min
T2 construct: from tissue; host or cells: brain of living male rats (PET imaging)
Description: (§1) For radioligand injection, a polyethylene catheter (PE 10) was inserted into the penile vein of a male rat and then secured with tissue adhesive and tape. For dynamic scanning, the rats were secured with tape in the scanner and kept under 1.5% isoflurane anesthesia via a nose cone. Body temperature was monitored with a rectal probe. All PET scans were performed on a microPET Focus 220 scanner (Siemens Medical Solutions) (7,8). Data were acquired in listmode and reconstructed with Fourier rebinning + 2D filtered backprojection. A transmission scan was acquired before radioligand injection for attenuation correction. Dynamic scanning began at the time of a one-minute intravenous bolus injection of the radioligand under study (55 ± 19 MBq; volume 0.2 to 1.0 mL). The injected mass dose was 3 ± 1 nmol/kg. Challenge agents were administered intravenously 10 minutes before the radioligand for pre-blocking studies or 10 minutes after the radioligand for displacement studies. Tomographic images were analyzed with pixel-wise modeling computer software (PMOD 2.6; PMOD Group). Regions-of-interest in the brain were delineated, and time-activity curves calculated as SUV versus time.
Pre-blocking and displacement experiments were performed to assess radioligand target engagement and radioligand selectivity in vivo. Normally 4 doses of 0.01 mg/kg, 0.05 mg/kg, 0.25 mg/kg, and 1.25 mg/kg were used for preblocking experiments, and only 2 doses of 0.25 mg/kg and 1.25 mg/kg were used for displacement experiments. […] […] […] […] Where data permitted, the dose-response curves were fitted with GraphPad Prism software (version 8.1.1; GraphPad) to estimate the ED50 values. A dummy value of 100 pmol per kg body weight was used for zero concentration of the challenge agent in the construction of these dose-response curves. Numerical data are expressed as mean ± S.D. for n>2, or as mean and range for n = 2.

GluN2B = molecular target: T3, GluN2B (Homo sapiens, UniProt Q05586+Q13224); parameters: method as in PMID 31924728; conditions: cited from earlier work
T3 construct: expressed in transfected cells; host or cells: transiently transfected mouse fibroblast cells (membrane homogenate)

[4] = pKa measurement (cyclohexane / sodium phosphate buffers); type: physicochemical; conditions: distribution between cyclohexane and sodium phosphate buffers
[5] = n = 3
Description: Human Plasma Free Fraction. Plasma free fraction (fp) was measured as described previously (6). […] If necessary, samples were left to decay to within the optimal radioactivity range for accurate γ-counter measurement.

[6] = Description: Rats were anesthetized with 1.5% isoflurane in oxygen. […] The rats were then immediately sacrificed by decapitation, and their brains and myocardial tissues were excised.
Plasma was separated from blood cells, and a sample (50 µL) was measured for radioactivity. An aliquot (450 µL) was placed in acetonitrile (720 µL) along with carrier NR2B-Me (5 µg) and mixed well. Water (100 µL) was added, mixed well, measured for radioactivity, and centrifuged at 10,000 g for one minute. The supernatant was analyzed with radio-HPLC and the precipitate measured for radioactivity, as described for brain.
(§2) The SUV due to radioligand or radiometabolite only was calculated by multiplying the total SUV of the tissue by the fraction of the radioligand or radiometabolite measured with HPLC (Supplementary Table S4).

[7] = room temperature, at least 30 min
From the text: Subsequent processing and analysis were as described for rat ex vivo experiments in the main text.

[8] = remark: listed apart in the source
Description: For Brain. The brain (1.7 g) was homogenized in twice its volume of cold saline. […] An aliquot (450 µL) was then placed in acetonitrile (720 µL) along with carrier NR2B-Me (5 µg) and mixed well. Water (100 µL) was then added, mixed well, measured for radioactivity, and centrifuged at 10,000 g for one minute. The supernatant was analyzed via HPLC. The precipitate was measured for radioactivity to determine the recovery of radioactivity into the supernatant that had been injected onto HPLC.
For Whole Blood. […] The sample was mixed well and incubated at 37 °C for one hour. Water (300 µL) was added to lyse open all cells. An aliquot (450 µL) was then removed to a new vial, and acetonitrile (720 µL) was added. The mixture was mixed well, measured for radioactivity, and centrifuged at 10,000 g for one minute. The supernatant was analyzed via HPLC as described for brain.
For Plasma. Plasma was separated from blood cells. […] The mixture was measured for radioactivity. An aliquot (450 µL) was then placed in acetonitrile (720 µL) along with carrier NR2B-Me (5 µg) and mixed well. Water (100 µL) was then added, mixed well, measured for radioactivity, and centrifuged at 10,000 g for one minute. The supernatant was analyzed with HPLC as described for brain. The precipitate was measured for radioactivity to determine radioactivity recovery into the supernatant that had been injected onto HPLC.
as §2

[9] = LogD7.4 measurement (1-octanol / sodium phosphate buffer); type: physicochemical
Description: The radiochemical purity of the radioligand was measured via HPLC. […] Aliquots (1 mL) were distributed to each of eight borosilicate disposable culture tubes (13 × 100 mm). Six tubes were extracted with buffer pre-treated 1-octanol (1 mL) by vortexing for one minute and then centrifuged for one minute. The organic and aqueous phases were separated. Samples of organic phase (50 µL) and aqueous phase (50 µL) were taken and separately measured for radioactivity. The remaining two tubes containing radioactivity in buffer were analyzed with HPLC to check for any decrease in radiochemical purity over the time-span of the experiment. […] LogD was calculated as log[(cpm/mL for 1-octanol phase)/(cpm/mL for aqueous phase)] using Pallas for Windows software (CompuDrug Inc.).

[10] = Radiochemical stability of formulated radioligand; type: physicochemical
From the text: However, the fraction collected from HPLC contains 0.1% TFA. […] Protection with ascorbic acid was therefore used immediately after HPLC radioligand purification to maintain weakly acidic and reducing conditions.

GluN2B receptors [11] = molecular target: T1, GluN2B receptors; assay: PET displacement / pre-blocking of ^11C-NR2B-Me radioligands with Ro-25-6981, Lassen plots; type: in vivo; conditions: rat; Ro-25-6981 0.25 mg/kg i.v. 10 min before radioligand
Description: as §1, with “For dynamic scanning, the rats were secured with tape in the scanner and kept under 1.5% isoflurane anesthesia via a nose cone.” left out
Pre-blocking and displacement experiments were performed to assess radioligand target engagement and radioligand selectivity in vivo. […] Areas-under the curve (AUCs) from time-activity curves between 20 and 90 minutes were calculated for each radioligand. AUCs obtained from the same production of radioligand were scaled to the value (or mean value) for the baseline experiment to give relative values (relative AUC20–90 min). […] Where data permitted, the dose-response curves were fitted with GraphPad Prism software (version 8.1.1; GraphPad) to estimate the ED50 values. A dummy value of 100 pmol per kg body weight was used for zero concentration of the challenge agent in the construction of these dose-response curves. Numerical data are expressed as mean ± S.D. for n>2, or as mean and range for n = 2.

[12] = system: numerous binding sites and receptors; assay: PDSP pharmacological screen, other receptors and binding sites; conditions: 10 μM; not greater than 10% for sites other than calcium channel, hERG, σ1, σ2
From the text: (§3) NR2B-Me was submitted to the PDSP for assessment of binding affinity against a wide range of other receptors and binding sites. A full listing of these receptors and binding sites is given in the Supplemental Results. Detailed assay protocols are available at the PDSP website (http://pdsp.cwru.edu).
(§4) Assessment of Binding Affinity against a Wide Range of Other Receptors and Binding Sites. […]

hERG channel = hERG channel (Homo sapiens, UniProt Q12809); assay: PDSP pharmacological screen, hERG channel; conditions: read-out: inhibition of reference radioligand binding, hERG channel
From the text: as §3, §4

PC12 cell σ2 receptors = molecular target: T4, PC12 cell σ2 receptors (Rattus norvegicus, UniProt Q5U3Y7); assay: PDSP σ2 receptor binding; conditions: at 10 µM (Table 1 footnote: 10 µmol), PC12 cell σ2
T4 construct: endogenous in cells; host or cells: PC12 cells
T4 sequence (Q5U3Y7 1-176): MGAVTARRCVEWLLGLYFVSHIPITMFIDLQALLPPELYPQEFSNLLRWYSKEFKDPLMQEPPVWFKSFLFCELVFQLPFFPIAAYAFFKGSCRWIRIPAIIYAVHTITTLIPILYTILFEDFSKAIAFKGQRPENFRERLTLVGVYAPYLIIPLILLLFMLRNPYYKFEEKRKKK
From the text: as §3
(§5) Assessment of Binding Affinity against a Wide Range of Other Receptors and Binding Sites. NR2B-Me was submitted to the National Institute of Mental Health Psychoactive Drug Screening program (NIMH-PDSP) to assess binding affinity against a wide range of other receptors and binding sites (5-HT1A, 1B, 1D, 1E, 2A, 2A agonist, 2A antagonist, 2B, 2B agonist, 2B antagonist, 2C, 2C agonist, 2C antagonist, 3, 5A, 6, 7; α2; α2β2, α2β2, α3β2, α3β4, α4β2, α4β4, α7; α1A, 1A agonist, 1B, 1B agonist, 1B antagonist, 2A-2C; AMPA*; β1-3; BZPa1-3, a5, a6, rat brain site; Ca^2+-Channel; CB1-2, D1, 2, 2 agonist, 2 antagonist, 3-5; DAT; DOR; EP1-4; GABAA,B; GPR40,41,43; H1-4; HERG; IMIDAZOLINE 1; KA-R*; KOR, KORagonist, antagonist; M1, 1 agonist, 1 antagonist, 2, 3, 3 agonist, 3 antagonist, 4, 5, 5 agonist, 5 antagonist; MDR 1; mGluR1A,2,4,5,5-cloned,5-rat brain,6,8; MOR; Na^+-Channel; NET; NK1, 1 antagonist, 2, 2 antagonist, 3, 3 antagonist; NMDA; NMDA/MK801; NT-1; OXYTOCINagonist, antagonist; PAR1agonist, antagonist; PCP; PKCA, B, D, E, G; PTHR2, Purinergicagonist, antagonist; SET; σ1,2; V1, 1 agonist, 1 antagonist, 2, 2 agonist, 2 antagonist, 3, 3 agonist, 3 antagonist, VMAT1, 2).

calcium channel = assay: PDSP pharmacological screen, calcium channel; type: binding; conditions: 10 μM
From the text: as §3, §4

guinea pig σ1 receptor = guinea pig σ1 receptor (Cavia porcellus, UniProt Q60492); assay: PDSP σ1 receptor binding; conditions: 10 μM; read-out: inhibition of reference radioligand binding, guinea pig σ1 receptor
From the text: as §3, §5

[13] = rat, ex vivo 30 min after intravenous injection

T1 sequence (Q00960 27-1482, other chains not shown): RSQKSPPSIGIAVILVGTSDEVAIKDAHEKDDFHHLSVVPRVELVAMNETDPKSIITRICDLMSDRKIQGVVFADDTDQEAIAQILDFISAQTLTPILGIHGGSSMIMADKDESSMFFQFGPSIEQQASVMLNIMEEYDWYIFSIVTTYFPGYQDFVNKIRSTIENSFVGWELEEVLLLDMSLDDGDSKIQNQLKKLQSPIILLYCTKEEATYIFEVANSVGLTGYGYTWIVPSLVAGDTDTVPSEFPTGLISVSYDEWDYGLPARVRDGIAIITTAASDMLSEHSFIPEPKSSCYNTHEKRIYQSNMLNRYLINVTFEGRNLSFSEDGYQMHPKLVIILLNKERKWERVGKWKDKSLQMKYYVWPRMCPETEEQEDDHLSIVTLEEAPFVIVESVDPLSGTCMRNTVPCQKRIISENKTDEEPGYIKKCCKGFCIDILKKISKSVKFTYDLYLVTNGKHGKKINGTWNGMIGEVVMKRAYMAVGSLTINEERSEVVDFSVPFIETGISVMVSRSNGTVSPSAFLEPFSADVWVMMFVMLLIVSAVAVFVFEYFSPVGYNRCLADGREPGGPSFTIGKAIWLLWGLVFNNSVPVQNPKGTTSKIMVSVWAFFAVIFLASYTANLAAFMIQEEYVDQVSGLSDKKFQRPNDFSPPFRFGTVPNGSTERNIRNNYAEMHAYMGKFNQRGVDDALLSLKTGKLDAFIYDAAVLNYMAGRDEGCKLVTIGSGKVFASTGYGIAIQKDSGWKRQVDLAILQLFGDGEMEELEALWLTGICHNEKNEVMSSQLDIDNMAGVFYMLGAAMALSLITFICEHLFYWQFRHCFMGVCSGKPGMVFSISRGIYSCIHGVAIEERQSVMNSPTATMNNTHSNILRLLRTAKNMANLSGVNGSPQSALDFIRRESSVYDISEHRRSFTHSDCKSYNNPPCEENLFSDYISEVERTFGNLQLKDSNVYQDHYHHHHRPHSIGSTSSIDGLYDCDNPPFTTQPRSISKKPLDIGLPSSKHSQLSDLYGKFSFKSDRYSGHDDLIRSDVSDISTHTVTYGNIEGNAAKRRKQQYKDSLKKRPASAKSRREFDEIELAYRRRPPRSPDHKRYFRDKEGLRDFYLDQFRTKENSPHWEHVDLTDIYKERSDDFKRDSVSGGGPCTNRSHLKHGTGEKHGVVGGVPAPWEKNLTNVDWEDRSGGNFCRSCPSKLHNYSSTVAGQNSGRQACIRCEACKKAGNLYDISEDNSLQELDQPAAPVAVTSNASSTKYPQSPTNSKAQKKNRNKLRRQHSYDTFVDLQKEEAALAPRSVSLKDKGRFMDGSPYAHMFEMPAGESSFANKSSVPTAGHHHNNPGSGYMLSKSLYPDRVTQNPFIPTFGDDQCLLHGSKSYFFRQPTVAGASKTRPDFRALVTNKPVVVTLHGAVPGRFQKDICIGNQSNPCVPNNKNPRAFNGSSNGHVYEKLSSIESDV
Sequence of guinea pig σ1 receptor (Q60492 whole entry): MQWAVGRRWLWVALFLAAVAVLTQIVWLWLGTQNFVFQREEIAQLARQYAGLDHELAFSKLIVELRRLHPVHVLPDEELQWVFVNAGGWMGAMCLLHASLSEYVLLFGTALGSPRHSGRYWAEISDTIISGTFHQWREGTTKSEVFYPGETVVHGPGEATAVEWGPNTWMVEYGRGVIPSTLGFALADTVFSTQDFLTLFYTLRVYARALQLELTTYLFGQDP
T3 sequence (Q13224 27-1484, species assumed, other chains not shown): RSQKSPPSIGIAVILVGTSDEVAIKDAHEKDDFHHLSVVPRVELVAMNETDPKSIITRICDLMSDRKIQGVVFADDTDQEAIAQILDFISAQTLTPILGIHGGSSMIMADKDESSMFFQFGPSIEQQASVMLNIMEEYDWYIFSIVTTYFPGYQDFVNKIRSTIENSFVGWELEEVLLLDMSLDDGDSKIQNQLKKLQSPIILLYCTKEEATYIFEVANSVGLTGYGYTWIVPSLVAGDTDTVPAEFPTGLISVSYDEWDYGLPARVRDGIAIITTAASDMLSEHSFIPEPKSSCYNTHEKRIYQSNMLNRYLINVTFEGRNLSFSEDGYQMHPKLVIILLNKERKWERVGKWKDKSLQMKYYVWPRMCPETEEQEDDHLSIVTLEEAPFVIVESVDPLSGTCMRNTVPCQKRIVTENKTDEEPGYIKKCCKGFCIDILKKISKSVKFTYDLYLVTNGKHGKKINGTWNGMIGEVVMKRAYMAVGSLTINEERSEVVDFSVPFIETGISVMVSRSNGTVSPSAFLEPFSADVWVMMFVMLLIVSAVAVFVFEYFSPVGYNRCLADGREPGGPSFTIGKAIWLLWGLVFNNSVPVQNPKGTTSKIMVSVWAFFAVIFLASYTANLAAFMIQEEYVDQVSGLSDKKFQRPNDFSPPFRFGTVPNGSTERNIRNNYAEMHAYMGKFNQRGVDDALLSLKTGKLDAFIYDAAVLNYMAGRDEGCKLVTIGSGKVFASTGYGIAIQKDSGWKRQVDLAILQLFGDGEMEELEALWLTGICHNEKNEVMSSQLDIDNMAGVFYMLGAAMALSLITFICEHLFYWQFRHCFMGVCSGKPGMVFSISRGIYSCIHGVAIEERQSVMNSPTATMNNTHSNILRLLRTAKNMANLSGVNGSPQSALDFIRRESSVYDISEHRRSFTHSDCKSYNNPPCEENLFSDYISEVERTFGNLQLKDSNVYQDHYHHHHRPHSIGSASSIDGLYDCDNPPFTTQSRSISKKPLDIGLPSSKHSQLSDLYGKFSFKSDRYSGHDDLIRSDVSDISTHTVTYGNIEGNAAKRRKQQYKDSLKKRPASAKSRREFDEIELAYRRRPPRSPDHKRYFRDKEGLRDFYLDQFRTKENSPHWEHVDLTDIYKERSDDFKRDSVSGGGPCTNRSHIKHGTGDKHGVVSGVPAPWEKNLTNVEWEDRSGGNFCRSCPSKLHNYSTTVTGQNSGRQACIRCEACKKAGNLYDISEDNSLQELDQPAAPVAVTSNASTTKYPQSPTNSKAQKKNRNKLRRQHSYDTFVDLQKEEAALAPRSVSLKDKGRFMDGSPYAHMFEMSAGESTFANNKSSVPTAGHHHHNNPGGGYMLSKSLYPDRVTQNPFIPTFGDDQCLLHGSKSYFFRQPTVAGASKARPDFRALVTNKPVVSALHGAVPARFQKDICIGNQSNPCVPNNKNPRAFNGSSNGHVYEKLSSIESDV
T2 sequence (Q9R0C9 whole entry): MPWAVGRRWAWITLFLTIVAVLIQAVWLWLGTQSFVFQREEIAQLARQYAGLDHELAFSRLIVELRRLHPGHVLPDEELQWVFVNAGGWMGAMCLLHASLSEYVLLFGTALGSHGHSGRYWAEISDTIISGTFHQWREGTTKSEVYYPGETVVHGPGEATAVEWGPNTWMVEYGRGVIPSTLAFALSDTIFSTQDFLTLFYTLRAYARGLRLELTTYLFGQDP
Sequence of hERG channel (Q12809 whole entry): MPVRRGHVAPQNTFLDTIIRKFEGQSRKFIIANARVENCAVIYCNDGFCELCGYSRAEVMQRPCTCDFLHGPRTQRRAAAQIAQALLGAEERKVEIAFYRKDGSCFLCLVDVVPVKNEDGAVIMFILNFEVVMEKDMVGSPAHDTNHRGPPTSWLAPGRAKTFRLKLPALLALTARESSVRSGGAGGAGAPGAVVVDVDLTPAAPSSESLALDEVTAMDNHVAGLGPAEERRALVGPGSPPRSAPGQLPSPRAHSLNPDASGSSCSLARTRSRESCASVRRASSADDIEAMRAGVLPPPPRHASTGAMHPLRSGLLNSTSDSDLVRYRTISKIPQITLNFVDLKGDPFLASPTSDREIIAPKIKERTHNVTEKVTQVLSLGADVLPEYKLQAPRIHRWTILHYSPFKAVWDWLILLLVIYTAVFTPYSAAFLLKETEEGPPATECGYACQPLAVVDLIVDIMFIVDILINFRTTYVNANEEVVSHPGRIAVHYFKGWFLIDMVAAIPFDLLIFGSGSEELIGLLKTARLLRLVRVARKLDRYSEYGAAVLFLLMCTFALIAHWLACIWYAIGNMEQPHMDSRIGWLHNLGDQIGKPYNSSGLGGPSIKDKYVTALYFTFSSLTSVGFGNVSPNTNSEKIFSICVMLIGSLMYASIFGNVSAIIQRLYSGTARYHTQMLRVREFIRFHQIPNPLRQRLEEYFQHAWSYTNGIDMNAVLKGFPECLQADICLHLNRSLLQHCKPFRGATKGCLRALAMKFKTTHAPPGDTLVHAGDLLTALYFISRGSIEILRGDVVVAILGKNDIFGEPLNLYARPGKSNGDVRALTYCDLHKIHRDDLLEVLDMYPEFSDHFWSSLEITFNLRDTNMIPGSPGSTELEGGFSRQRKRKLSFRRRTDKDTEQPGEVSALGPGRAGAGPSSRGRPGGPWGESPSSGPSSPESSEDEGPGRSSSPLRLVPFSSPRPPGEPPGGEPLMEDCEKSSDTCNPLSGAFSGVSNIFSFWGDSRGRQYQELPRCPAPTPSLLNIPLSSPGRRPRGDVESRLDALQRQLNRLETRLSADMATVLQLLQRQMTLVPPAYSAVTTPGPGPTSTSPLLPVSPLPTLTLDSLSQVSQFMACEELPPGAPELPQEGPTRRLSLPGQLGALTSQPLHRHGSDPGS

Structure (SMILES): CSc1ccc2c(c1)CCN(CCCCc1ccc(C)cc1)CC2O (racemic) [NR2B-SMe, (R,S)-7-thiomethoxy-3-(4-(4-methyl-phenyl)butyl)-2,3,4,5-tetrahydro-1H-benzo[d]azepin-1-ol]
- ED50 in rat whole brain in vivo ^11C-(S)-NR2B-SMe (GluN2B receptors [1]): 9.5 nmol/kg
- σ2 inhibition (σ2 receptor): 90%
- pKa [2]: 5.03
- cLogD7.4 [3]: 3.41
- ED50 in rat whole brain in vivo ^18F-FTC146 (σ1 receptors): 1064 nmol/kg
- Ki (GluN2B): 2.2 nM

Structure (SMILES): COc1ccc2c(c1)CCN(CCCCc1ccc([11CH3])cc1)CC2O (racemic) [^11C-NR2B-Me]
- pKa (apparent) [4]: 5.04 ± 0.01
- human plasma free fraction (fp) [5]: 1.16% ± 0.14
- Ex vivo stability, brain (unchanged radioligand as % of radioactivity) ([6]; rat brain, 30 min after intravenous injection): 99.5% and > 99%
- Ex vivo stability, plasma (unchanged radioligand as % of radioactivity) ([6]; rat plasma, 30 min after intravenous injection): 46.2%
- Radioactivity conc., brain [6, 13]: 4.1 SUV
- Radioactivity conc., plasma [6, 13]: 0.04 SUV
- Radioactivity conc., whole blood [6, 13]: 0.300 SUV
- Tissue to plasma radioactivity ratio, brain [6, 13]: 103
- Tissue to plasma radioactivity ratio, plasma [6, 13]: 1.0
- Tissue to plasma radioactivity ratio, whole blood [6, 13]: 7.5
- stability in human brain homogenate [7]: 99.5%
- stability in human plasma [7]: 100%
- conversion into radiometabolite in brain homogenate ([8]; rat brain homogenate): less than 0.5%
- In vitro stability, plasma ([8]; rat plasma, 37 °C, 30 min): 70.3%
- single less lipophilic radiometabolite detected in rat plasma in vitro ([8]; rat plasma, 37 °C, 30 min): about 30%
- logD7.4 ([9]; 1-octanol / sodium phosphate buffer pH 7.4, room temperature): 3.27
- time stable in PBS (10 mM) [10]: at least 2.5 hours
- radioligand remaining in solution (no adsorption to glass test tubes) ([10]; PBS 10 mM): 98.1 ± 0.5%
- radioactivity in brain regions at 90 min as % of peak values after pre-block (GluN2B receptors [11]): about 10%

Structure (SMILES): COc1ccc2c(c1)CCN(CCCCc1ccc(C)cc1)CC2O (stereo not drawn) [NR2B-Me, 7-methoxy-3-(4-(p-tolyl)butyl)-2,3,4,5-tetrahydro-1H-benzo[d]azepin-1-ol]
- pKa ([4]; cyclohexane/sodium phosphate buffer, read-out: pKa (apparent)): 5.04
- inhibition of reference radioligand binding, numerous other binding sites and receptors [12]: only weakly inhibited
- inhibition at 10 µM (hERG channel): 61.7%
- inhibition at 10 µM (PC12 cell σ2 receptors): 90.7%
- σ2 inhibition (PC12 cell σ2 receptors; 10 µM): 91%
- logD ([9]; 1-octanol/sodium phosphate buffer, pH 7.4, Table 1, text gives this value as measured logD7.4, read-out: cLogD7.4): 3.27
- inhibition of reference radioligand binding, calcium channel (calcium channel): 39.6%
- inhibition at 10 µM (guinea pig σ1 receptor): 89.7%
